The record followed here is PubChem BioAssay (NCI).

What all share (assay): inhibition of tumour cell growth, NCI panel, 48 h
The subject of assay [1] is CAKI-1 renal.
Assay [2] concerns HCC-2998 colon.
Assay [3] concerns LOX IMVI melanoma.
Assay [4] relates to NCI-H522 lung.
Assay [5] has as its system ACHN renal.
Assay [6] has as its system M14 melanoma.
The test system of assay [7] is DU-145 prostate.
For assay [8], the system named is TK-10 renal.
The test system of assay [9] is KM12 colon.
Assay [10] concerns MOLT-4 leukemia.

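All cell lines were grown in 96-well plates and treated with compound for 48 hours. The concentration for 50% growth inhibition is given as GI50. At the TGI there is no net growth.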 A value given as a limit tells only on which side of the number the result lay.

For `CO/N=C(/COc1c(-c2ccccc2)oc2ccccc2c1=O)c1ccc(OC)cc1`, the GI50 in assay [1] is over 100 µM; in assay [2], over 100 µM; in assay [3] it was over 100 µM; in assay [4], 53.3 µM; in [5], over 100 µM; in assay [6], over 100 µM. In addition, the GI50 was over 100 µM in assay [7], over 100 µM in assay [8] and 56.1 µM in assay [9]. In addition, the TGI in assay [1], in assay [2], in [3], in assay [4], in [5] and in [6] was over 100 µM each time. In addition, the TGI in assay [7], in [8] and in assay [9] was over 100 µM each time.
Turning to `CCCCCCCCCCCC[n+]1ccccc1`, the GI50 is 1.37 µM in assay [2]; 1.17 µM in assay [3]; 0.665 µM in assay [4]; 1.17 µM in [10]; 2.09 µM in assay [5]; 0.835 µM in [6]. The GI50 in assay [7] is 2.21 µM; in [8], 0.941 µM; in assay [9], 1.12 µM. For the same molecule, the TGI in [2] is 5.29 µM; in assay [3], 2.72 µM; in [4], 2.84 µM; in assay [10], 3.66 µM; in assay [5], 14.2 µM; in assay [6], 2.82 µM. In addition, the TGI in assay [7] amounted to 11.6 µM; in assay [8], 2.67 µM; in assay [9], 2.87 µM.
Regarding `Cc1ncc(C(=O)Nc2ccc(CN3CCN(C)CC3)c(C(F)(F)F)c2)cc1C#Cc1cnc(N)c2ncccc12`, the GI50 was 0.0719 µM in assay [1]; 1.05 µM in [4]; 0.0946 µM in assay [10]; 0.063 µM in [5]; 0.18 µM in assay [7]; 0.318 µM in assay [8]. Further, the TGI in assay [1] was 1.46 µM; in assay [4], 3.96 µM; in assay [5], 1.65 µM; in assay [7] it was 2.08 µM; in assay [8] it was 2.13 µM; in assay [9], 1.33 µM.
Turning to `O=Cc1ccc(Oc2c3ccccc3nc3occc23)cc1`, the GI50 is 12.7 µM in assay [1]; 49.5 µM in [4]; 6.89 µM in [10]; 15.9 µM in assay [6]; 17.6 µM in assay [7]; 3.83 µM in assay [8]. Besides, the GI50 in assay [9] is 8.79 µM. The TGI is 30.2 µM in assay [1]; over 100 µM in [4]; 24.4 µM in assay [10]; 30.3 µM in assay [6]; 43.7 µM in assay [7]; 21 µM in assay [8]. The molecule also came in with a TGI in assay [9] of 25.4 µM.
Consider `CC[C@H](C)[C@H](NC(=O)Nc1ccccc1)C(=O)N(C)[C@H](C[C@@H](OC(C)=O)c1nc(C(=O)N[C@@H](Cc2ccccc2)C[C@H](C)C(=O)OC)cs1)C(C)C`, for which the GI50 in assay [1] was 9.01 µM; in assay [2] it was 3.48 µM; in [3], 4.76 µM; in [4], 1.5 µM; in assay [5], 8.09 µM; in [6], 2.19 µM. The GI50 in assay [7] was 3.94 µM; in [8], 9.56 µM; in [9], 2.09 µM. The TGI is over 100 µM in [1]; over 100 µM in assay [2]; over 100 µM in assay [3]; 21.1 µM in assay [4]; over 100 µM in assay [5]; 5.84 µM in [6]. The TGI in assay [7], in [8] and in assay [9] was over 100 µM in each case.
As for `CC1=CC2=C(C(N)=O)C(=O)OC2(C)C(c2ccccc2)C1` (stereo unspecified), the TGI in assay [3], in assay [4], in assay [10], in assay [5], in assay [6] and in [7] was over 100 µM each time. Besides, the TGI in assay [8] and in [9] was over 100 µM throughout.
In the case of `Nc1ccc2c(c1)CC1c3ccccc3C(C2)c2ccccc21`, the TGI in assay [1], in [2], in assay [3], in assay [4], in [10] and in assay [5] was over 100 µM throughout. For the same molecule, the TGI in [6], in assay [8] and in [9] was over 100 µM each time.
For `Cc1ccc2c(c1)SC(c1cc3c(cc1Br)OCO3)S2` (stereo unspecified), the TGI in assay [1] is over 100 µM; in [2], over 31.6 µM; in [3], over 31.6 µM; in assay [4], over 31.6 µM; in [10], over 31.6 µM; in assay [5], over 31.6 µM. The TGI in assay [6], in assay [8] and in assay [9] was over 31.6 µM in each case.
Take `CCOC(=O)N1N=NC2C3OC(C[C@@]3(C#N)OC(C)=O)[C@H]21` (stereo partly specified): the TGI in assay [1], in assay [2], in assay [3], in [4], in [10] and in assay [5] was over 100 µM in each case. Besides, the TGI in assay [6], in assay [8] and in [9] was over 100 µM in each case.
Take `Cc1ccc(C2(O)CC(c3ccc([N+](=O)[O-])o3)=NN2C(=O)COc2ccccc2Cl)cc1` (stereo unspecified): the TGI is over 100 µM in assay [1]; 38.3 µM in assay [2]; 18.9 µM in assay [3]; over 48.4 µM in [4]; 96.1 µM in assay [10]; 63.2 µM in [5]. Also, the TGI was 15.4 µM in assay [6], over 86.1 µM in [8] and over 100 µM in [9].
Consider `C#C[C@@]1(O)[C@@H](CO)O[C@@H](n2ccc3c(N)ncnc32)[C@@H]1O`, for which the GI50 is 1.45 µM in assay [2]; 0.667 µM in assay [3]; 0.37 µM in assay [4]; 0.614 µM in assay [10]; 0.56 µM in assay [5]; 1.42 µM in [6]. Besides, the GI50 in [7] is 0.563 µM; in [8], 2.65 µM; in assay [9], 1.82 µM. The TGI in [2] is 3.12 µM; in assay [3] it was 2.05 µM; in assay [4] it was 3.82 µM; in assay [10], over 100 µM; in [5], 4.48 µM; in assay [6], 3 µM. In addition, the TGI was 6.56 µM in [7], 9.48 µM in assay [8] and 10.9 µM in assay [9].
With `O=C1[C@@H]2C3SC(c4ccccc43)[C@@H]2C(=O)N1c1ccccc1`, the TGI in assay [1], in assay [2], in assay [3], in assay [4], in [10] and in assay [5] was over 100 µM throughout. The TGI in [6], in assay [8] and in [9] was over 100 µM in each case.
